{
  "source": "patent US5252558A",
  "about": "“Pentapeptide having specific inhibiting effect on epidermal cell proliferation, the salts thereof, pharmaceutical compositions comprising the same and a process for the preparation of the pentapeptide and the pharmaceutical compositions” (Richter Gedeon Vegyeszeti Gyar RT, priority 1990, dated 1993)",
  "system": "cytoblastic medulla cells",
  "assay": "51Cr-emission test (in vitro toxicity)",
  "type": "cell-based, rat",
  "description": "The in vitro toxicity of the new compound was examined by ^51 Cr emission test.\n6×10^7 cytoblastic medulla cells to be labelled were centrifuged (1000 rotations/minute for 7 minutes), then the cells were suspended in 1 ml of TC-199 Parker medium (product of OKI) and incubated with ^51 Cr ray source of an activity of 3.7×10^7 Bq (1 mCi) at a temperature of 37° C. for 1 hour, then the labelled cells were washed with 60 ml of medium. When the evaluation was carried out, the cell suspension was centrifuged after the treatment with the oligopeptide and the radioactivity of the supernatant was measured.\nWhen the ^51 Cr emission test was evaluated, the cell suspension was treated with the oligopeptide and centrifuged, then the activity of the supernatant was determined by a Packard apparatus.",
  "note": "Residues, ends and D or L forms follow the SMILES beside them. *: point of attachment. X1 = O=C1CCC[C@@H](C(=O)*)N1",
  "data": [
    {"smiles": "O=C(O)CC[C@H](NC(=O)[C@@H]1CCCC(=O)N1)C(=O)N[C@@H](CC(=O)O)C(=O)N[C@@H](CO)C(=O)NCC(=O)O", "note": "[pAad-EI, Xaa Glu Asp Ser Gly] (X1-EDSG-OH)", "values": [
      {"measurement": "51Cr-emission of cytoblastic medulla cells, cpm", "setting": "concentration = 10^-8 mole/l, control 155,849", "value": "148,303 cpm"},
      {"measurement": "toxicity by 51Cr emission (in words)", "setting": "isotope emission compared to the control", "value": "not toxic"}
    ]}
  ]
}
